# Measured values: US20210300936A1, “PYRAZOLOTRIAZOLOPYRIMIDINE DERIVATIVES AS A2A RECEPTOR ANTAGONIST” (BEIGENE, LTD., priority 2018, published 2021)
# Molecular target: human A2A receptor (A2AR) (Homo sapiens, UniProt P29274)
# Experiment: Luciferase reporter assay (HEK293-A2AR-luc2p/CRE/Hygro cells, 3 nM CGS21680)
# Format: cell-based
# Conditions: 3 nM CGS21680, 5 h incubation
# Procedure: HEK293 cells were maintained in Dulbecco's modified Eagle's medium (DMEM, Gibco) supplemented with 10% fetal bovine serum (FBS, Thermo Scientific), 100 units/mL penicillin (Gibco), and 0.1 mg/mL streptomycin (Gibco) in a humidified 37° C. environment with 5% C02. Plasmid encoding wild-type human A2A receptor (A2AR) (in pcDNA3.1) was synthesized by Genscript (Nanjing, China). Transfection of the plasmids was performed in 6-well plates with 4×10^5 cells using Lipofectamin 2000 (ThermoFisher Scientific) according to the instruction of the manufacturer. Cell clones that stably express A2AR were established and maintained in the same complete medium as the HEK293 cells in addition of G-418 (Gibico). Expression level of A2AR in each single cell clone was determined using immunoblotting and FACS method. HEK293-A2AR stable cells were then transfected with pGL4.29[luc2P/CRE/Hygro] (Promega) luciferase reporter plasmid for establishing the HEK293-A2AR-luc2p/CRE/Hygro stable cell line.
# HEK293-A2AR-luc2p/CRE/Hygro cells were seeded at a density of 5,000 cells/well in DMEM with 1% FBS and 1 U/mL adenosine deaminase (ADA) (Sigma). After 18 h, the cells were treated with 3 nM CGS21680 plus a series dilution of A2AR antagonist, the compounds disclosed herein at the concentration of 0.1˜10000 nM, prepared in DMEM with 1% FBS. After 5 h incubation, the luciferase activity in cells were measured using the Bright-Glo Luciferase Assay System (Promega) according to manufacturer's instructions. The luminescence signal was measured using a PHERAstar FS plate reader (BMG Labtech). […] Maximal luminescence intensity was determined in the presence of 3 nM CGS21680 and was set as 100%. The IC50 value was calculated from a dose dependent inhibition curve across the range of compound concentrations.
# human A2A receptor (A2AR), sequence (P29274 whole entry): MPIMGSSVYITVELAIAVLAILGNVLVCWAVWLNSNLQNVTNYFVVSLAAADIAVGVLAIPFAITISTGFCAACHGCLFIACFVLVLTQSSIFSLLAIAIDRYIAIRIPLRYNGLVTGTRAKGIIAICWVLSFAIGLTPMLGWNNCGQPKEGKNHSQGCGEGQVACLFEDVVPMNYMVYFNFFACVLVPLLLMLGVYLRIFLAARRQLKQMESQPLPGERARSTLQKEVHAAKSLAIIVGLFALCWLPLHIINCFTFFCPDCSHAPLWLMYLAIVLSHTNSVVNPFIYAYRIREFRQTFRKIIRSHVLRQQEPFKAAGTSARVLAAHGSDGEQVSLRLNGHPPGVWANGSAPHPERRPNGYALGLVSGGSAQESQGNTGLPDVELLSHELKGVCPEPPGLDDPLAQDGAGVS
row,IC50 [nM],SMILES
1,2.9,"Nc1nc2c(cnn2C(C(=O)N2CCCc3ccccc32)c2ccccc2)c2nc(-c3ccco3)nn12 (stereo not drawn) [Compound B4, 2-(5-amino-2-(furan-2-yl)-7H-pyrazolo[4,3-e][1,2,4]triazolo[1,5-c]pyrimidin-7-yl)-1-(3,4-dihydroquinolin-1(2H)-yl)-2-phenylethan-1-one]"
2,55,"CCCC(C(=O)N1CCN(c2ccc(OCCOC)cc2)CC1)n1cc2c(nc(N)n3nc(-c4ccco4)nc23)n1 (single isomer, unassigned) [Compound C5a]"
3,69.6,"CC(C)CC(C(=O)N1CCN(c2ccc(F)cc2F)CC1)n1cc2c(nc(N)n3nc(-c4ccco4)nc23)n1 (stereo not drawn) [Compound C23, 2-(5-amino-2-(furan-2-yl)-8H-pyrazolo[4,3-e][1,2,4]triazolo[1,5-c]pyrimidin-8-yl)-1-(4-(2,4-difluorophenyl)piperazin-1-yl)-4-methylpentan-1-one]"
4,23.7,"CC1(O)CCN(C(=O)C(C)(c2ccccc2)n2ncc3c2nc(N)n2nc(-c4ccco4)nc32)CC1 (stereo not drawn) [Compound B25, 2-(5-amino-2-(furan-2-yl)-7H-pyrazolo[4,3-e][1,2,4]triazolo[1,5-c]pyrimidin-7-yl)-1-(4-hydroxy-4-methylpiperidin-1-yl)-2-phenylpropan-1-one]"

# Second part, the compound before the results:
row,SMILES,IC50 [nM]
1,"CN1CCN(CCOc2ccc(N3CCN(C(=O)C(C)(c4ccccc4)n4ncc5c4nc(N)n4nc(-c6ccco6)nc54)CC3)cc2)CC1 (stereo not drawn) [Compound A81, 2-(5-amino-2-(furan-2-yl)-7H-pyrazolo[4,3-e][1,2,4]triazolo[1,5-c]pyrimidin-7-yl)-1-(4-(4-(2-(4-methylpiperazin-1-yl)ethoxy)phenyl)piperazin-1-yl)-2-phenylpropan-1-one]",4.7
2,"COCCOc1ccc(N2CCN(C(=O)[C@](C)(c3ccccc3)n3ncc4c3nc(N)n3nc(-c5ccco5)nc43)CC2)c(F)c1 [Compound A64a, (S)-2-(5-amino-2-(furan-2-yl)-7H-pyrazolo[4,3-e][1,2,4]triazolo[1,5-c]pyrimidin-7-yl)-1-(4-(2-fluoro-4-(2-methoxyethoxy)phenyl)piperazin-1-yl)-2-phenylpropan-1-one]",17.5
3,"CN(C)CCOc1ccc(N2CCN(C(=O)C(C)(c3ccccc3)n3ncc4c3nc(N)n3nc(-c5ccco5)nc43)CC2)cc1 (single isomer, unassigned) [Compound A71b]",4.8
4,"CC(C(=O)N1CCN(c2ccccc2F)CC1)(c1ccccc1)n1ncc2c1nc(N)n1nc(-c3ccco3)nc21 (stereo not drawn) [Compound A69, 2-(5-amino-2-(furan-2-yl)-7H-pyrazolo[4,3-e][1,2,4]triazolo[1,5-c]pyrimidin-7-yl)-1-(4-(2-fluorophenyl)piperazin-1-yl)-2-phenylpropan-1-one]",3.4
5,"CC(C(=O)N1CCN(c2ccc(OCCN(C)C)cc2)CC1)n1ncc2c1nc(N)n1nc(-c3ccco3)nc21 (stereo not drawn) [Compound A18, 2-(5-amino-2-(furan-2-yl)-7H-pyrazolo[4,3-e][1,2,4]triazolo[1,5-c]pyrimidin-7-yl)-1-(4-(4-(2-(dimethylamino)ethoxy)phenyl)piperazin-1-yl)propan-1-one]",30.6
6,"CN1CCN(CCOc2ccc(N3CCN(C(=O)[C@](C)(c4ccccc4)n4ncc5c4nc(N)n4nc(-c6ccco6)nc54)CC3)cc2)CC1 [Compound A81a, (S)-2-(5-amino-2-(furan-2-yl)-7H-pyrazolo[4,3-e][1,2,4]triazolo[1,5-c]pyrimidin-7-yl)-1-(4-(4-(2-(4-methylpiperazin-1-yl)ethoxy)phenyl)piperazin-1-yl)-2-phenylpropan-1-one]",7.9
7,"CC(C(=O)N1CCN(c2ccc(C(=O)NC3CCCCC3)cc2)CC1)(c1ccccc1)n1ncc2c1nc(N)n1nc(-c3ccco3)nc21 (stereo not drawn) [Compound A98, 4-(4-(2-(5-amino-2-(furan-2-yl)-7H-pyrazolo[4,3-e][1,2,4]triazolo[1,5-c]pyrimidin-7-yl)-2-phenylpropanoyl)piperazin-1-yl)-N-cyclohexylbenzamide]",7.2
8,"COCCOCCOc1ccc(N2CCN(C(=O)C(CC(C)C)n3ncc4c3nc(N)n3nc(-c5ccco5)nc43)CC2)cc1 (single isomer, unassigned) [Compound A17a]",0.9
